From patent US20190374554A1, “USE OF OXYGENATED CHOLESTEROL SULFATES (OCS) TO TREAT INFLAMMATORY SKIN DISEASE AND SKIN LESIONS” (Virginia Commonwealth University, priority 2016, published 2019)
“Also recorded” adds a separate entry of the source.

Tests used:
chronic dermatitis = assay: Case report: topical therapy of chronic dermatitis following poison ivy attack; assay type: in vivo, Human; settings: one person, topical once every three days, three applications
Method: A case report: A volunteer had been suffering from chronic dermatitis with intense itching following a poison ivy attack two years earlier. The affected area was externally treated with 0.5 ml of 5 mg/ml of 25HC3S sodium salt in a body lotion (Cococare®, Vitamin E Cream) once every three days for a total of three applications.

[1] = First cadaver skin flux study (radiolabelled 25HC3S, diffusion cells, % dose recovered); assay type: in vitro ADME; settings: from comparison of formulations in cadaver skin study
Method: The formulations shown in the below Table 22 were made. Each of the below formulations containing drug included 1 wt % non-radiolabelled 25HC3S since the maximum drug loading achieved in Carbopol based creams or gels was 1 wt %. In positive control C1, 20 wt % DMSO was included in EtOH to achieve 1 wt % drug loading.
The procedure for mixing radiolabelled C^14-25HC3S with each formulation was as follows. Formulation (1 mL of each) was placed into 1 mL vials. To each vial was added 5 μL EtOH containing hot material ([…] radiolabelled 25HC3S). The mixture was mixed using a small plunger for 4 to 5 minutes until uniform.
The above formulations were tested on cadaver skin as follows. Dermatomed cadaver skin was obtained from thigh and abdominal areas. A total of 4 donor skin samples (4 separate experiments) were used in the study. Skin samples were placed on diffusion cells (see below) at least 2 hours prior to dosing. Skin sample integrity was examined by measuring […] water loss (TEWL).
The diffusion cells had 1 cm^2 surface area. Each sample at each testing point had 2-3 replicates.
The dose was 10-25 μL of formulation each containing 0.2-0.5 μCi radioactivity per diffusion cell.
The receptor fluid was 6% PEG 400 in PBS. The receptor fluid flow rate was continuous flow at 4.7 mL/hr.
For dose application, the net amount was determined by weight difference before and after dosing application.
The total skin exposure time was 24 hours. After 8 hours of skin exposure, skin surface dose residues were removed by 5% soap-water washing as follows: (1) two times with small cotton balls wetted with 5% clear Ivory® liquid soap (Proctor and Gamble); and (2) two times with cotton balls wetted with distilled de-ionized water to recover the residual drug content, and a final drying with a dry cotton ball. After 16 hours of additional skin exposure (after skin washing), the experiment was finished.
The dosed skin was first tape stripped 10 times followed with heat separation of viable epidermis and dermis. Receptor fluid samples were collected at 30 min, 1 hour, 2 hour, and every 2 hours until the end of the experiment. All samples were counted for radioactivity

What does the source list for C[C@H](CCCC(C)(C)O)[C@H]1CC[C@H]2[C@@H]3CC=C4CC(OS(=O)(=O)[O-])CC[C@]4(C)[C@H]3CC[C@]12C.[Na+] (stereo partly drawn) [25HC3S sodium salt, 5-cholesten-3, 25-diol, 3-sulfate]?
itching, redness and swelling (chronic dermatitis; 0.5 ml of 5 mg/ml in body lotion (Cococare Vitamin E Cream)): Within two days, the itching subsided, and redness and swelling decreased; skin recovery (chronic dermatitis; 0.5 ml of 5 mg/ml in body lotion): almost completely recovered in 10 days

Which “trend as permeation enhancer (PE)” value [1] does the source give for PEG 400 here?
The value was “poor permeation enhancer”.

For CC(O)CO (stereo not drawn) [PG, propylene glycol], which “trend as permeation enhancer (PE)” value [1] is on record?
Its value is “may be about the same as OA; also recorded: good permeation enhancer”.

With CCCCCCCCCCCCOC(=O)C(C)O (stereo not drawn) [LL, Lauryl lactate] as the molecule, how does the “trend as permeation enhancer (PE)” value [1] read?
The value was “may be more effective than PG”.

For CCO [EtOH, ethanol], which “trend as permeation enhancer (PE)” value [1] is on record?
The value was “high PE; also recorded: great permeation enhancer”.
